This passage reports inhibition and IC50 results from paper PMC4863635, “Radicicol-Mediated Inhibition of Topoisomerase VIB-VIA Activity of the Human Malaria Parasite Plasmodium falciparum” (mSphere, 2016).

Assay [1] deals with T1, PfTopoVIB (measured as PfTopoVIB-VIA complex) (Plasmodium falciparum, UniProt Q8I5N7+Q8ID53).
T1 construct: gene PF3D7_1365600; full-length Myc-tagged PfTopoVIB co-expressed with Flag-tagged PfTopoVIA in S. cerevisiae, cell-free extract; with PfTopoVIA (PF3D7_1217100.1)
The experiment in a line: kDNA decatenation gel assay with yeast cell extract expressing PfTopoVIB-VIA. The class given is biochemical.

Assay [2] addresses T2, PfTopoVIB (topoisomerase VIB subunit of PfTopoVI) (Plasmodium falciparum, UniProt Q8ID53).
T2 construct: gene PF3D7_1365600; full-length Myc-tagged PfTopoVIB co-expressed with Flag-tagged PfTopoVIA in S. cerevisiae, cell-free extract; with PfTopoVIA (PF3D7_1217100.1)
T2 sequence (Q8ID53 1-561): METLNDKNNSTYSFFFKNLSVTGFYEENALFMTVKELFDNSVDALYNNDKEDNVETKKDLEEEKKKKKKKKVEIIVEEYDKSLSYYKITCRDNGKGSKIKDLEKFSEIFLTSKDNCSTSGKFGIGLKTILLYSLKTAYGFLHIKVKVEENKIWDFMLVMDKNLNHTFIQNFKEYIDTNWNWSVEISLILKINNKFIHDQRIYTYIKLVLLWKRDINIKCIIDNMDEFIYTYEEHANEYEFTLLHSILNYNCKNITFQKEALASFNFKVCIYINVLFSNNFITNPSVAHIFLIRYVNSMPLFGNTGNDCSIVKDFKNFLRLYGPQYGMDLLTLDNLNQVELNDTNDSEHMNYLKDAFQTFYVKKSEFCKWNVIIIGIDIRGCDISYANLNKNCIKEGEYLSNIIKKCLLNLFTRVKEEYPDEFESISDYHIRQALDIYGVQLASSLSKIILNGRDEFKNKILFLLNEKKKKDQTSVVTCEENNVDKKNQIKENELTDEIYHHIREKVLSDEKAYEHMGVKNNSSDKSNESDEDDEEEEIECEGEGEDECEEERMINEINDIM
T2 sequence (Q8I5N7 1-327 partner): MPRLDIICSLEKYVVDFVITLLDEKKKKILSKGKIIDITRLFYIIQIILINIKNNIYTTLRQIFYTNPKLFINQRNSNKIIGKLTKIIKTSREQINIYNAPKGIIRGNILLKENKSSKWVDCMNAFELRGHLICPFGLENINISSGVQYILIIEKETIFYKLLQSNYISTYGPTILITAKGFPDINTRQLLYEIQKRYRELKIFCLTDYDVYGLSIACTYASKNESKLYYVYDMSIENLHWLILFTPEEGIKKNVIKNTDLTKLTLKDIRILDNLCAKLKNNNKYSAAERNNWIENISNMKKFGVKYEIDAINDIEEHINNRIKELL
The description is as above. The class given is biochemical.

A value given as a limit tells only on which side of the number the result lay.

Usually inhibition stands for the drop in the measured response relative to a control, in per cent. A high value points to a response far below the control. In assay [1], `COc1cc([C@@H]2c3cc4c(cc3[C@@H](O[C@@H]3O[C@@H]5CO[C@@H](C)O[C@H]5[C@H](O)[C@H]3O)[C@H]3COC(=O)[C@H]23)OCO4)cc(OC)c1O` [etoposide] came in with an inhibition at 10 µM greater than 80%. Broadly, the IC50 is the midpoint of a concentration-inhibition curve. Read a low IC50 as inhibition by little substance. Compound `C[C@@H]1C[C@H]2O[C@@H]2/C=C\C=C\C(=O)Cc2c(Cl)c(O)cc(O)c2C(=O)O1` [radicicol] displayed an IC50 in assay [2] of roughly 80 µM.
